Measured values: the NIST ThermoML archive (doi:10.1016/j.jct.2017.08.017)
Values joined by “and” are separate entries in the source; they are usually repeats but may differ in a detail not shown here. Equal values may be shown once. ± gives the expanded uncertainty stated by the source.

Key:
[1] = molar enthalpy of vaporization or sublimation; conditions: 298.15 K; Crystal; Static calorimetry
[2] = Crystal, Calculated from knudsen effusion weight loss

Oc1ccccc1-c1nc2ccccc2s1 [2-(2-hydroxyphenyl)-1,3-benzothiazole]
molar enthalpy [1]: 25.1 ± 0.526 kcal/mol

Oc1ccccc1-c1nc2ccccc2o1 [2-(2-hydroxyphenyl)benzoxazole]
vapor or sublimation pressure ([2]; 331.16 K): 0.000127 ± 0.00012 kPa and 0.00012 ± 0.00012 kPa and 0.000119 ± 0.00012 kPa | vapor or sublimation pressure ([2]; 333.19 K): 0.000156 ± 0.00012 kPa and 0.000152 ± 0.00012 kPa and 0.00015 ± 0.00012 kPa | vapor or sublimation pressure ([2]; 335.13 K): 0.000191 ± 0.00012 kPa and 0.000188 ± 0.00012 kPa | vapor or sublimation pressure ([2]; 337.16 K): 0.000233 ± 0.00012 kPa and 0.00023 ± 0.00012 kPa and 0.000248 ± 0.00012 kPa | vapor or sublimation pressure ([2]; 339.18 K): 0.000301 ± 0.00012 kPa and 0.000288 ± 0.00012 kPa and 0.000294 ± 0.00012 kPa | vapor or sublimation pressure ([2]; 341.12 K): 0.000365 ± 0.00012 kPa and 0.000362 ± 0.00012 kPa and 0.000366 ± 0.00012 kPa | vapor or sublimation pressure ([2]; 343.16 K): 0.000446 ± 0.00012 kPa and 0.000441 ± 0.00012 kPa and 0.000477 ± 0.00012 kPa | vapor or sublimation pressure ([2]; 345.17 K): 0.000571 ± 0.00012 kPa and 0.000545 ± 0.00012 kPa and 0.000558 ± 0.00012 kPa | vapor or sublimation pressure ([2]; 347.11 K): 0.000688 ± 0.00012 kPa and 0.00068 ± 0.00012 kPa | vapor or sublimation pressure ([2]; 349.16 K): 0.000829 ± 0.00012 kPa and 0.000822 ± 0.00012 kPa and 0.000879 ± 0.00012 kPa | vapor or sublimation pressure ([2]; 351.16 K): 0.001027 ± 0.00014 kPa and 0.001049 ± 0.00014 kPa and 0.001006 ± 0.00014 kPa | vapor or sublimation pressure ([2]; 353.12 K): 0.001264 ± 0.00015 kPa and 0.001273 ± 0.00015 kPa and 0.00126 ± 0.00015 kPa | molar enthalpy [1]: 24 ± 0.43 kcal/mol

c1ccc(-c2nc3ccccc3s2)cc1 [2-phenylbenzothiazole]
molar enthalpy [1]: 23.7 ± 0.406 kcal/mol

c1ccc(-c2nc3ccccc3o2)cc1 [2-phenylbenzoxazole]
molar enthalpy [1]: 21.7 ± 0.478 kcal/mol
